In ChEMBL document CHEMBL6078657, “Thiazolidinedione-based structure modification of ergosterol peroxide provides thiazolidinedione-conjugated derivatives as potent agents against breast cancer cells through a PI3K/AKT/mTOR pathway” (Bioorg Med Chem, 2025):
The source made the active and inactive calls. The rule behind the calls is not given here.

Key:
[1] = test system: MCF7; assay: Growth inhibition of human MCF7 cells assessed as ruptured membrane and shrunken nucleus at 1 to 6 uM incubated up to 48 hrs by acridine orange/ethidium bromide (AO/EB) staining based assay; assay type: functional, cell-based; conditions: dose 1-6 µM
[2] = test system: MCF7; assay: Induction of apoptosis in human MCF7 cells assessed as necrotic cells at 1 uM measured after 48 hrs incubation by Annexin V-FITC/PI double staining assay (reference value: 0.77%); assay type: functional
[3] = test system: MCF7; assay: Induction of apoptosis in human MCF7 cells assessed as late apoptotic cells at 1 uM measured after 48 hrs incubation by Annexin V-FITC/PI double staining assay (reference value: 0.68%); assay type: functional
[4] = test system: MCF7; assay: Induction of apoptosis in human MCF7 cells assessed as viable cells at 1 uM measured after 48 hrs incubation by Annexin V-FITC/PI double staining assay (reference value: 92.8%); assay type: functional; conditions: read-out: Activity
[5] = Toxicity in healthy BALB/c mouse assessed as pathological changes in heart at 20 mg/kg, ip daily for 14 consecutive days by HE staining based assay; assay type: organism-based; conditions: in vivo, 336 h, time 14 day
[6] = test system: MCF7; assay: Induction of cell cycle arrest in human MCF7 cells assessed as accumulation of cells at G0/G1 phase at 6 uM measured after 48 hrs by PI staining based flow cytometry analysis (reference value: 58.42%); assay type: functional
[7] = test system: MCF7; assay: Induction of cell cycle arrest in human MCF7 cells assessed as accumulation of cells at G2/M phase at 3 uM measured after 48 hrs by PI staining based flow cytometry analysis (reference value: 16.91%); assay type: functional
[8] = test system: 4T1; assay: In vivo antitumor activity against mouse 4T1 cells transfected in BALB/c mouse assessed as tumor growth inhibition at 30 mg/kg, ip daily for 14 consecutive days relative to control; assay type: functional; conditions: 4T1, 336 h, time 14 day, read-out: TGI
[9] = Toxicity in healthy BALB/c mouse assessed as pathological changes in liver at 20 mg/kg, ip daily for 14 consecutive days by HE staining based assay; assay type: organism-based; conditions: in vivo, 336 h, time 14 day
[10] = test system: MCF7; assay: Antiproliferative activity against human MCF7 cells assessed as cell viability measured after 48 hrs incubation by MTT assay; assay type: functional, cell-based; conditions: MCF7, 48 h
[11] = test system: MCF7; assay: Induction of apoptosis in human MCF7 cells assessed as early apoptotic cells at 3 uM measured after 48 hrs incubation by Annexin V-FITC/PI double staining assay (reference value: 5.73%); assay type: functional
[12] = test system: MCF7; assay: Induction of apoptosis in human MCF7 cells assessed as viable cells at 3 uM measured after 48 hrs incubation by Annexin V-FITC/PI double staining assay (reference value: 92.8%); assay type: functional; conditions: read-out: Activity
[13] = Toxicity in healthy BALB/c mouse assessed as pathological changes in spleen at 40 mg/kg, ip daily for 14 consecutive days by HE staining based assay; assay type: organism-based; conditions: in vivo, 336 h, time 14 day
[14] = Toxicity in healthy BALB/c mouse assessed as pathological changes in lungs at 40 mg/kg, ip daily for 14 consecutive days by HE staining based assay; assay type: organism-based; conditions: in vivo, 336 h, time 14 day
[15] = test system: MCF7; assay: Induction of cell cycle arrest in human MCF7 cells assessed as accumulation of cells at S phase at 6 uM measured after 48 hrs by PI staining based flow cytometry analysis (reference value: 24.67%); assay type: functional
[16] = Toxicity in healthy BALB/c mouse assessed as pathological changes in kidney at 40 mg/kg, ip daily for 14 consecutive days by HE staining based assay; assay type: organism-based; conditions: in vivo
[17] = test system: MCF7; assay: Induction of apoptosis in human MCF7 cells assessed as late apoptotic cells at 3 uM measured after 48 hrs incubation by Annexin V-FITC/PI double staining assay (reference value: 0.68%); assay type: functional
[18] = Toxicity in healthy BALB/c mouse assessed as pathological changes in kidneys at 20 mg/kg, ip daily for 14 consecutive days by HE staining based assay; assay type: organism-based; conditions: in vivo, 336 h, time 14 day
[19] = test system: HepG2; assay: Antiproliferative activity against human HepG2 cells assessed as cell viability measured after 48 hrs incubation by MTT assay; assay type: functional, cell-based; conditions: HepG2, 48 h
[20] = Antiproliferative activity against human MCF-10A cells assessed as cell viability measured after 48 hrs incubation by MTT assay; assay type: toxicity, cell-based
[21] = Selectivity index, ratio of IC50 for human MCF-10A cells to IC50 for human MCF7 cells; assay type: toxicity; conditions: MCF-10A cells and MCF7 cells, read-out: Selectivity Index
[22] = test system: MCF7; assay: Inhibition of phosphorylation of Akt in human MCF7 cells measured after 48 hrs by Western blot analysis; assay type: cell-based; conditions: dose 1-6 µM
[23] = Toxicity in healthy BALB/c mouse assessed as pathological changes in lungs at 20 mg/kg, ip daily for 14 consecutive days by HE staining based assay; assay type: organism-based; conditions: in vivo, 336 h, time 14 day
[24] = test system: MCF7; assay: Induction of apoptosis in human MCF7 cells assessed as late apoptotic cells at 6 uM measured after 48 hrs incubation by Annexin V-FITC/PI double staining assay (reference value: 0.68%); assay type: functional
[25] = test system: MCF7; assay: Induction of apoptosis in human MCF7 cells assessed as increase in ROS production by measuring bright green fluorescence measured after 48 hrs incubation by DCFH-DA staining based flow cytometry assay; assay type: functional, cell-based; conditions: dose 1-6 µM
[26] = test system: A549; assay: Antiproliferative activity against human A549 cells assessed as cell viability measured after 48 hrs incubation by MTT assay; assay type: functional, cell-based; conditions: A549, 48 h
[27] = test system: MCF7; assay: Induction of apoptosis in human MCF7 cells assessed as viable cells at 6 uM measured after 48 hrs incubation by Annexin V-FITC/PI double staining assay (reference value: 92.8%); assay type: functional; conditions: read-out: Activity
[28] = test system: MCF7; assay: Induction of cell cycle arrest in human MCF7 cells assessed as accumulation of cells at G0/G1 phase at 3 uM measured after 48 hrs by PI staining based flow cytometry analysis (reference value: 58.42%); assay type: functional
[29] = test system: MCF7; assay: Induction of cell cycle arrest in human MCF7 cells assessed as accumulation of cells at S phase at 3 uM measured after 48 hrs by PI staining based flow cytometry analysis (reference value: 24.67%); assay type: functional
[30] = test system: MCF7; assay: Induction of apoptosis in human MCF7 cells assessed as early apoptotic cells at 1 uM measured after 48 hrs incubation by Annexin V-FITC/PI double staining assay (reference value: 5.73%); assay type: functional
[31] = test system: MCF7; assay: Induction of apoptosis in human MCF7 cells assessed as decrease in mitochondrial membrane potential by measuring increase in JC-1 monomer (green fluorescence) at 6 uM incubated for 48 hrs by JC-1 staining based flow cytometry analysis (reference value: 2.96%); assay type: functional; parameters: scale not given: the % may be the effect or the level left
[32] = test system: MCF7; assay: Induction of cell cycle arrest in human MCF7 cells assessed as accumulation of cells at S phase at 1 uM measured after 48 hrs by PI staining based flow cytometry analysis (reference value: 24.67%); assay type: functional
[33] = test system: MCF7; assay: Induction of apoptosis in human MCF7 cells assessed as early apoptotic cells at 6 uM measured after 48 hrs incubation by Annexin V-FITC/PI double staining assay (reference value: 5.73%); assay type: functional
[34] = Toxicity in healthy BALB/c mouse assessed as pathological changes in liver at 40 mg/kg, ip daily for 14 consecutive days by HE staining based assay; assay type: organism-based; conditions: in vivo, 336 h, time 14 day
[35] = Toxicity in healthy BALB/c mouse assessed as pathological changes in heart at 40 mg/kg, ip daily for 14 consecutive days by HE staining based assay; assay type: organism-based; conditions: in vivo, 336 h, time 14 day

## CC(C)[C@@H](C)/C=C/[C@@H](C)[C@H]1CC[C@@H]2[C@]1(C)CC[C@H]1[C@]23C=C[C@]2(C[C@@H](OC(=O)NCCNC(=O)CN4C(=O)S/C(=C\c5cccc6ccccc56)C4=O)CC[C@]12C)OO3
[1]
  growth inhibition (GI): Active
[2]
  Activity: 0.99%
[3]
  Activity: 0.9%
[4]
  viability at 1 µM: 84.4%
[5]
  Activity: Non-toxic
[6]
  Activity: 89.86%
[7]
  Activity: 10.83%
[8]
  inhibition in vivo at 30 mg/kg: 86.2%
[9]
  Activity: Non-toxic
[10]
  IC50: 3.06 µM
[11]
  Activity: 22.8%
[12]
  viability at 3 µM: 75.7%
[13]
  Activity: Non-toxic
[14]
  Activity: Non-toxic
[15]
  Activity: 2.87%
[16]
  Activity: Non-toxic
[17]
  Activity: 0.77%
[18]
  Activity: Non-toxic
[19]
  IC50: 5.55 µM
[20]
  IC50 at 48 h: 32.3 µM
[21]
  selectivity ratio: 10.6
[22]
  inhibition: Dose-dependent-effect
[23]
  Activity: Non-toxic
[24]
  Activity: 1.75%
[25]
  Activity: Active
[26]
  IC50: 4.76 µM
[27]
  viability at 6 µM: 53%
[28]
  Activity: 80.77%
[29]
  Activity: 8.41%
[30]
  Activity: 13.7%
[31]
  Activity: 49.5%
[32]
  Activity: 14.93%
[33]
  Activity: 44.5%
[34]
  Activity: Non-toxic
[35]
  Activity: Non-toxic
